{"source": "patent US20110195988A1", "about": "“Pharmaceutical Composition” (Special Products Limited, priority 2010, published 2011)", "origin": "cited, not measured here", "details": "oral formulations of morphine"}
{"smiles": "CN1CC[C@]23c4c5ccc(O)c4O[C@H]2[C@@H](O)C=C[C@H]3[C@H]1C5", "note": "[morphine]", "values": [{"measurement": "time after administration at which the analgesic effect is observed", "value": "around 30 minutes"}]}
